Results: patent publication US6673549B1, “Genes expressed in C3A liver cell cultures treated with steroids” (Incyte Corporation, priority 2000, dated 2004)

System: human C3A liver cells
Assay: Microarray differential gene expression in human C3A liver cell cultures treated with steroids
Type: cell-based
From the text: Incyte clones represent template sequences derived from the LWESEQ GOLD assembled human sequence database (Incyte Genomics). In cases where more than one clone was available for a particular template, the 5′-most clone in the template was used on the microarray. The HUMAN GENOME GEM series 1-4 microarrays (Incyte Genomics) contain 28,626 array elements which represent 10,068 annotated clusters and 18,558 unannotated clusters. For the UNIGEM series microarrays (Incyte Genomics), Incyte clones were mapped to non-redundant Unigene clusters (Unigene database (build 46), NCBI; Shuler (1997) J Mol Med 75:694-698), and the 5′ clone with the strongest BLAST alignment (at least 90% identity and 100 bp overlap) was chosen, verified, and used in the construction of the microarray. The UNIGEM V microarray (Incyte Genomics) contains 7075 array elements which represent 4610 annotated genes and 2,184 unannotated clusters.
To construct microarrays, cDNAs were amplified from bacterial cells using primers complementary to vector sequences flanking the cDNA insert. […] Amplified cDNAs were then purified using […]-400 columns (APB). Purified cDNAs were immobilized on polymer-coated glass slides. Glass microscope slides (Corning, Corning N.Y.) were cleaned by ultrasound in 0.1% SDS and acetone, with extensive distilled water washes between and after treatments. Glass slides were etched in 4% hydrofluoric acid (VWR Scientific Products, West Chester Pa.), washed thoroughly in distilled water, and coated with 0.05% aminopropyl silane (Sigma Aldrich) in 95% ethanol. Coated slides were cured in a 110° C. oven. cDNAs were applied to the coated glass substrate using a procedure described in U.S. Pat. No. 5,807,522. One microliter of the cDNA at an average concentration of 100 ng/μl was loaded into the open capillary printing element by a high-speed robotic apparatus which then deposited about 5 nl of cDNA per slide.
Microarrays were UV-crosslinked using a […] UV-crosslinker (Stratagene), and then washed at room temperature once in 0.2% SDS and three times in distilled water. Non-specific binding sites were blocked by incubation of microarrays in 0.2% casein in phosphate buffered saline (Tropix, Bedford Mich.) for 30 minutes at 60° C. followed by washes in 0.2% SDS and distilled water as before.
In all cases, mRNA from untreated early confluent C3A cells were prepared in parallel as described below.
Cells were harvested and lysed in 1 ml of TRIZOL reagent (5×10^6 cells/ml; Life Technologies). Lysates were vortexed thoroughly, incubated at room temperature for 2-3 minutes, and extracted with 0.5 ml chloroform. The extract was mixed, incubated at room temperature for 5 minutes, and centrifuged at 15,000 rpm for 15 minutes at 4° C. The aqueous layer was collected, and an equal volume of isopropanol was added. Samples were mixed, incubated at room temperature for 10 minutes, and centrifuged at 15,000 rpm for 20 minutes at 4° C. The supernatant was removed, and the RNA pellet was washed with 1 ml of 70% ethanol, centrifuged at 15,000 rpm at 4° C., and resuspended in RNAse-free water. The concentration of the RNA was determined by measuring the optical density at 260 nm.
Poly(A) RNA was prepared using an OLIGOTEX mRNA kit (Qiagen) with the following modifications: OLIGOTEX beads were washed in tubes instead of on spin columns, resuspended in elution buffer, and then loaded onto spin columns to recover mRNA. To obtain maximum yield, the mRNA was eluted twice.
Each poly(A) RNA sample was reverse transcribed using MMLV reverse-transcriptase, 0.05 pg/μl oligo-d(T) primer (21mer), 1× first strand buffer, 0.03 units/ul RNAse inhibitor, 500 uM dATP, 500 uM dGTP, 500 uM dTTP, 40 uM dCTP, and 40 uM either dCTP-Cy3 or dCTP-Cy5 (APB).

CC#C[C@]1(O)CC[C@H]2[C@@H]3CCC4=CC(=O)CCC4=C3[C@@H](c3ccc(N(C)C)cc3)C[C@@]21C [Mifepristone]
Ave DE [log2] (C3A treated with steroid) (Clone ID 4543123): −1.20 log2
Ave DE [log2] (C3A treated with steroid) (Clone ID 5426158): −0.93 log2

C[C@H]1C[C@H]2[C@@H]3CCC4=CC(=O)C=C[C@]4(C)[C@@]3(Cl)[C@@H](O)C[C@]2(C)[C@@]1(O)C(=O)CO [beclomethasane]
Ave DE [log2] (C3A treated with steroid) (Clone ID 5398701): 0.82 log2

C[C@H]1C[C@H]2[C@@H]3CCC4=CC(=O)C=C[C@]4(C)[C@@]3(F)[C@@H](O)C[C@]2(C)[C@@]1(O)C(=O)CO [betamethasone]
Ave DE [log2] (C3A treated with steroid) (Clone ID 220378): 0.57 log2
Ave DE [log2] (C3A treated with steroid) (Clone ID 615776): 1.11 log2
Ave DE [log2] (C3A treated with steroid) (Clone ID 619447): 0.33 log2
Ave DE [log2] (C3A treated with steroid) (Clone ID 686993): 0.51 log2
Ave DE [log2] (C3A treated with steroid) (Clone ID 689296): 1.12 log2
Ave DE [log2] (C3A treated with steroid) (Clone ID 1323327): 1.00 log2
Ave DE [log2] (C3A treated with steroid) (Clone ID 1329625): 0.91 log2
Ave DE [log2] (C3A treated with steroid) (Clone ID 1496011): 0.60 log2
Ave DE [log2] (C3A treated with steroid) (Clone ID 1501410): −0.98 log2
Ave DE [log2] (C3A treated with steroid) (Clone ID 1600180): 0.77 log2
Ave DE [log2] (C3A treated with steroid) (Clone ID 1798594): 1.37 log2
Ave DE [log2] (C3A treated with steroid) (Clone ID 1816768): 0.24 log2
Ave DE [log2] (C3A treated with steroid) (Clone ID 1824860): 0.70 log2
Ave DE [log2] (C3A treated with steroid) (Clone ID 1857044): 0.89 log2
Ave DE [log2] (C3A treated with steroid) (Clone ID 1951845): 1.02 log2
Ave DE [log2] (C3A treated with steroid) (Clone ID 2025128): 1.20 log2
Ave DE [log2] (C3A treated with steroid) (Clone ID 2046717): 0.83 log2
Ave DE [log2] (C3A treated with steroid) (Clone ID 2078880): −0.75 log2
Ave DE [log2] (C3A treated with steroid) (Clone ID 2170820): 1.30 log2
Ave DE [log2] (C3A treated with steroid) (Clone ID 2173002): 0.98 log2
Ave DE [log2] (C3A treated with steroid) (Clone ID 2173973): 0.81 log2
Ave DE [log2] (C3A treated with steroid) (Clone ID 2189061): 0.23 log2
Ave DE [log2] (C3A treated with steroid) (Clone ID 2222155): 0.50 log2
Ave DE [log2] (C3A treated with steroid) (Clone ID 2343836): 0.63 log2
Ave DE [log2] (C3A treated with steroid) (Clone ID 2404746): 1.46 log2
Ave DE [log2] (C3A treated with steroid) (Clone ID 2407620): 0.02 log2
Ave DE [log2] (C3A treated with steroid) (Clone ID 2430165): 0.68 log2
Ave DE [log2] (C3A treated with steroid) (Clone ID 2482388): 1.14 log2
Ave DE [log2] (C3A treated with steroid) (Clone ID 2660756): 1.26 log2
Ave DE [log2] (C3A treated with steroid) (Clone ID 2687356): 1.23 log2
Ave DE [log2] (C3A treated with steroid) (Clone ID 2695371): 0.95 log2
Ave DE [log2] (C3A treated with steroid) (Clone ID 2703282): −0.85 log2
Ave DE [log2] (C3A treated with steroid) (Clone ID 2734007): 1.04 log2
Ave DE [log2] (C3A treated with steroid) (Clone ID 2753065): 0.75 log2
Ave DE [log2] (C3A treated with steroid) (Clone ID 3229449): 1.05 log2
Ave DE [log2] (C3A treated with steroid) (Clone ID 3474091): 0.23 log2
Ave DE [log2] (C3A treated with steroid) (Clone ID 3528232): 0.80 log2
Ave DE [log2] (C3A treated with steroid) (Clone ID 3729593): 0.55 log2
Ave DE [log2] (C3A treated with steroid) (Clone ID 3876612): 0.19 log2
Ave DE [log2] (C3A treated with steroid) (Clone ID 3973687): 1.47 log2
Ave DE [log2] (C3A treated with steroid) (Clone ID 4087621): 1.09 log2
Ave DE [log2] (C3A treated with steroid) (Clone ID 4215034): 1.50 log2
Ave DE [log2] (C3A treated with steroid) (Clone ID 4403805): 1.19 log2
Ave DE [log2] (C3A treated with steroid) (Clone ID 4855265): 1.24 log2
Ave DE [log2] (C3A treated with steroid) (Clone ID 5206821): 0.50 log2
Ave DE [log2] (C3A treated with steroid) (Clone ID 5398701): 1.10 log2
Ave DE [log2] (C3A treated with steroid) (Clone ID 5521873): 0.77 log2
Ave DE [log2] (C3A treated with steroid) (Clone ID 5543385): 1.15 log2
